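Tested at 5 concentrations; 48 h exposure; 96-well plates; endpoints linearly interpolated, else capped at highest concentration. GI50 is the concentration that inhibits growth by half.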 Calls of active or inactive are those of the source. Cut-off read from the data, not from the text of the source: active = GI50 up to about 1.1 µM and inactive = higher.
Tests used:
Experiment in all cases: DTP human tumour cell line panel, 48 h
[1] = tested on: 786-0
[2] = tested on: A498
[3] = tested on: A549
[4] = tested on: ACHN
[5] = tested on: BT-549
[6] = tested on: CAKI-1
[7] = tested on: CCRF-CEM
[8] = tested on: COLO 205
[9] = tested on: DU-145
[10] = tested on: EKVX
[11] = tested on: HCC 2998
[12] = tested on: HCT-116
[13] = tested on: HCT-15
[14] = tested on: HL-60
[15] = tested on: HOP-62
[16] = tested on: HOP-92
[17] = tested on: HT-29
[18] = tested on: Hs-578T
[19] = tested on: IGROV-1
[20] = tested on: K562
[21] = tested on: LOX IMVI
[22] = tested on: M14
[23] = tested on: MCF7
[24] = tested on: MDA-MB-231
[25] = tested on: MDA-MB-435
[26] = tested on: MDA-N
[27] = tested on: MOLT-4
[28] = tested on: Malme-3M
[29] = tested on: NCI-H226
[30] = tested on: NCI-H23
[31] = tested on: NCI-H460
[32] = tested on: NCI-H522
[33] = tested on: NCI/ADR-RES
[34] = tested on: OVCAR-3
[35] = tested on: OVCAR-4
[36] = tested on: OVCAR-5
[37] = tested on: OVCAR-8
[38] = tested on: PC-3
[39] = tested on: RPMI-8226
[40] = tested on: RXF 393
[41] = tested on: SF-268
[42] = tested on: SF-295
[43] = tested on: SF-539
[44] = tested on: SK-MEL-28
[45] = tested on: SK-MEL-2
[46] = tested on: SK-MEL-5
[47] = tested on: SN12C
[48] = tested on: SNB-19
[49] = tested on: SNB-75
[50] = tested on: SR
[51] = tested on: SW-620
[52] = tested on: T47D
[53] = tested on: TK-10
[54] = tested on: U-251
[55] = tested on: UACC-257
[56] = tested on: UACC-62
[57] = tested on: KM12
[58] = tested on: SK-OV-3
[59] = tested on: UO-31

Measured: GI50

O=c1oc2c([N+](=O)[O-])cc([N+](=O)[O-])cc2c2ccccc12
inactive: [1] > 100 µM | [2] > 100 µM | [3] > 100 µM | [4] > 100 µM | [5] 59.6 µM | [6] > 100 µM | [7] > 100 µM | [8] > 100 µM | [9] > 100 µM | [10] > 100 µM | [11] > 100 µM | [12] > 100 µM | [14] > 100 µM | [15] > 100 µM | [16] > 100 µM | [17] > 100 µM | [18] > 100 µM | [19] > 100 µM | [20] > 100 µM | [21] > 100 µM | [22] > 100 µM | [23] > 100 µM | [24] > 100 µM | [25] > 100 µM | [26] > 100 µM | [27] > 100 µM | [28] > 100 µM | [29] > 100 µM | [30] > 100 µM | [31] > 100 µM | [32] > 100 µM | [33] > 100 µM | [34] > 100 µM | [35] > 100 µM | [36] > 100 µM | [37] > 100 µM | [38] > 100 µM | [39] > 100 µM | [40] > 100 µM | [41] > 100 µM | [42] > 100 µM | [43] > 100 µM | [44] > 100 µM | [45] > 100 µM | [46] > 100 µM | [47] > 100 µM | [48] > 100 µM | [49] > 100 µM | [50] > 100 µM | [51] > 100 µM | [52] > 100 µM | [53] > 100 µM | [54] > 100 µM | [55] > 100 µM | [56] > 100 µM
> 100 µM: [13]

c1cc(-c2csc(-c3ccsc3)c2)cs1
inactive: [1] > 100 µM | [2] > 100 µM | [3] > 100 µM | [4] > 100 µM | [5] > 100 µM | [6] > 100 µM | [7] > 100 µM | [8] > 100 µM | [9] > 100 µM | [10] > 100 µM | [11] 42.5 µM | [12] > 100 µM | [14] > 100 µM | [15] 71.6 µM | [16] > 100 µM | [17] > 100 µM | [18] > 100 µM | [19] > 100 µM | [20] > 100 µM | [57] 63.4 µM | [21] > 100 µM | [22] 47 µM | [23] 20.3 µM | [24] > 100 µM | [25] > 100 µM | [26] > 100 µM | [27] > 100 µM | [29] 13.5 µM | [30] > 100 µM | [31] > 100 µM | [33] > 100 µM | [34] 52.1 µM | [35] > 100 µM | [36] 88.9 µM | [37] > 100 µM | [38] 58.9 µM | [39] > 100 µM | [40] > 100 µM | [41] > 100 µM | [42] > 100 µM | [43] 36.5 µM | [44] > 100 µM | [46] > 100 µM | [58] > 100 µM | [47] > 100 µM | [48] 53.1 µM | [49] > 100 µM | [50] > 100 µM | [51] > 100 µM | [52] > 100 µM | [53] > 100 µM | [54] > 100 µM | [55] > 100 µM | [56] > 100 µM | [59] > 100 µM
> 100 µM: [13]

— ChEMBL document CHEMBL1201862, “PubChem BioAssay data set” (2004)
